Reference: patent publication US8372412B2, “Bioassay and peptides for use therein” (Rapid Biosensor Systems Limited, priority 2005, dated 2013)
Entries after “also recorded” stand apart in the source; their conditions may differ.

Key:
[1] = system: antisera (from rabbit) to the p3 18-mer (SEQ ID 11); experiment: Targeted Epitope ELISA (competitive ELISA against plate-coated p3 18-mer P779); type: binding; settings: for binding to the antisera relative to the p3 18-mer: competitive ELISA as before, 6-mers and re-tested 9-mer P782-10
Description: (§1) These peptides, along with the p3 18-mer (SEQ ID 11) were screened against antisera (from rabbit) to the p3 18-mer (SEQ ID 11). The screen utilized the competitive ELISA (Enzyme-linked immunosorbant assay) technique, which was used to assess the relative binding affinities of the 9-mer peptides to the 18-mer peptide.
(§2) Briefly, the assay involved binding (coating) the p3 18-mer (P779, SEQ ID 11) to ELISA plates, followed by incubation with variables amounts of competing ligand (9-mers, SEQ ID 1-10) with the antisera (1:250 dilution). The level of binding of the antisera to p3 18-mer (P779, SEQ ID 11) was indicated by treatment with goat anti-rabbit peroxidase conjugated antibody and then by addition of a chromogenic substrate ABTS (2,2-azino-di-[3-ethylbenzthiazoline sulphonate]) and hydrogen peroxide where upon a green colour developed which was recorded as an optical density (absorbance) on a plate reader. The colour development is proportional to the level of binding of the primary antisera bound to the plate.
A test ELISA was performed in order to ascertain the concentrations of coating peptide and competing peptides for the ELISA experiments, comprising a competitive ELISA of 9-mer P782-1 ([…])—SEQ ID 1—against 18-mer P779 ([…])—SEQ ID 11 (Mustafa, A. S. et al, supra). This 9-mer was chosen as it also overlaps with the p2 18-mer ([…])—SEQ ID 12. […] ELISA plates were coated with 2 μM solution of p3 18-mer (P779)—SEQ ID 11—and used 500 μM solutions of competing peptides, which were then subjected to four-fold serial dilution.
A Targeted Epitope ELISA was then designed to test the importance of the C-terminal region of the epitope on binding to the antisera. Two 6-mers were synthesized, P782-11 (GNNSPA)—SEQ ID 13—and P782-12 (NNSPAV)—SEQ ID 14, which are truncated forms of their respective 9-mers and subjected these to competitive ELISA as before and also re-tested the 9-mer P782-10 (SEQ ID 10) identified as a significant epitope in the Epitope Mapping ELISA.

[2] = Heat stability of peptide variants; type: physicochemical; settings: C-terminal variants of SGGNNSPA-X; no method or data given
[3] = system: antisera (from rabbit) to the p3 18-mer (SEQ ID 11); experiment: Epitope Mapping ELISA (competitive ELISA against plate-coated p3 18-mer P779); type: binding; settings: plates coated with 2 μM P779, competing peptides 500 μM, four-fold serial dilution, antisera 1:250
Description: as §1, §2
A test ELISA was performed in order to ascertain the concentrations of coating peptide and competing peptides for the ELISA experiments, comprising a competitive ELISA of 9-mer P782-1 ([…])—SEQ ID 1—against 18-mer P779 ([…])—SEQ ID 11 (Mustafa, A. S. et al, supra). This 9-mer was chosen as it also overlaps with the p2 18-mer ([…])—SEQ ID 12. […]

Substance | binding to the antisera relative to the p3 18-mer [1] | binding to the antisera relative to the p3 18-mer [3] | further results
GNNSPA (listed as Mycobacterium tuberculosis) [P782-11] | did not bind to the antisera |  | 
SGGNNSPAA (Modification (at position 9) of native Mycobacterium tuberculosis sequence) [SEQ ID 15] |  |  | heat stability [2]: particularly good Leu-heat stability; also recorded: increased heat stability
SGGNNSPAV (listed as Mycobacterium tuberculosis) [P782-10] | bound to the antisera as tightly as the p3 18-mer peptide P779 | bound to the antisera as tightly as the p3 18-mer peptide | 
NNSPAV (listed as Mycobacterium tuberculosis) [P782-12] |  |  | binds to the antisera less tightly relative to either 9-mer P782-10 or 18-mer P779 ([1]; competitive ELISA, relative binding affinity): 1.99 fold
QSGGNNSPA (listed as Mycobacterium tuberculosis) [P782-9] |  | no significant binding | 
